Patent publication EP1060182B1, “NOVEL PRODRUGS FOR PHOSPHORUS-CONTAINING COMPOUNDS” (Metabasis Therapeutics, Inc., priority 1998, dated 1999)
Entries after “also recorded” stand apart in the source; their conditions may differ.

Key:
[1] = tested on: glucose production in isolated rat hepatocytes; assay: Inhibition of glucose production in rat hepatocytes (Example J); type: cell-based; settings: 1 hour, lactate 10 mM / pyruvate 1 mM
Method: Select prodrugs of FBPase inhibitors were tested for inhibition of glucose production in isolated rat hepatocytes.
After a 10 minute equilibration period, lactate and pyruvate were added to 10 mM and 1 mM concentrations, respectively. Addition of gluconeogenic substrates was immediately followed by that of appropriate concentrations of test compound. After 1 hour, an aliquot (0.25 ml) was removed, transferred to an Eppendorf tube and centrifuged. The supernatant (50 µl) was then assayed for glucose content using a Glucose Oxidase kit (Sigma Chemical Co.) as per the manufacturer's instructions.

isolated rat hepatocytes [2] = assay: Activation to parent compound in isolated rat hepatocytes (Example I); type: cell-based; settings: 100 µM prodrug, peak within 15 minutes of addition
Text: An ODS column was used for analysis. […] Detection was at 310 nm.

[3] = tested on: microsomal fraction of rat liver; assay: Activation by rat liver microsomes (Example D); type: in vitro ADME; settings: 100 µM 7.1, 37°C; in the presence, but not in the absence of, NADP+; rate linearly dependent on microsomal protein
Method: The pellet was resuspended in homogenization buffer and recentrifuged.
Reactions were carried out at 37°C.
Reactions are monitored spectrophotometrically at 340 nm.

[4] = tested on: microsomal fraction of human liver; assay: Activation by human liver microsomes (Example E); type: in vitro ADME; settings: 250 µM prodrug, 37°C, NADPH-generating system
Method: 7.1, 1.3, and 30.1 were tested for conversion to their respective parent compounds by the microsomal fraction of human liver.

[5] = in rodents; cited from earlier work
[6] = i.v., over 2.5 minutes; cited from earlier work
[7] = intravenous administration to human patients; cited from earlier work
isolated rat hepatocytes [8] = assay: Active drug metabolites formed after prodrug activation in isolated rat hepatocytes (Example K); settings: for Product concentration nmoles/g cells (PMEApp): time point 4h
Method: Methods: Hepatocytes were prepared and incubated as described in Example I. 28.4 and 30.1 and their respective parent compounds, PMEA and ara-AMP, were dissolved in DMSO or methanol to yield 10 mM stock solutions, and then diluted into the cell suspension to yield a final concentration of 100 µM. At appropriate time points over the course of 2-4 hours, aliquots of the cell suspension were removed and spun through a silicon/mineral oil layer into 10% perchloric acid. The cell extracts in the acid layers were neutralized by the addition of 0.3 volumes of 3M KOH/3M KHCO3, and the extract was then centrifuged, filtered (0.2 micron filter) and loaded onto an anion exchange HPLC column equilibrated with 70% A (10 mM ammonium phosphate pH 3.5, 6% ETOH) and 30% B (1 M ammonium phosphate pH 3.5, 6% ETOH). Ara-ATP and PMEApp were eluted with a gradient to 80% B. Detection was at 254 nm.

[9] = Liver ara-ATP and plasma/urine ara-hypoxanthine after intravenous dosing (Example O); type: in vivo, rat
Method: The temporal profile of ara-hypoxanthine and ara-ATP generation following intravenous administration of 30.1 and free ara-AMP was compared in the rat.
Method: 30.1 and ara-AMP (Sigma) were administered to normal, fasted rats intravenously (in saline) via tail vein catheters. At appropriate time points following drug a administration, animals were lightly anesthetized with halothane. The peritoneal cavity was then opened and a blood sample was obtained from the abdominal vena cava and the liver freeze-clamped and excised.
The blood samples were heparinized and plasma was prepared. Plasma samples (100 µL) were mixed with 4 N perchloric acid (40 µL), vortexed, and then clarified by centrifugation. The supernatants were analyzed for ara-hypoxanthine by HPLC with use of a Beckman Ultrasphere ODS column (4.6 x 150 mm). The column was eluted with 100 mM acetic acid at a flow rate of 1.0 mL/min. The eluent was monitored by UV absorbance at 254 nm.
Livers were immediately homogenized in 3 volumes of 10% perchloric acid (w/w), and the extracts clarified by centrifugation at 2500 x g (5 minutes). The resulting supernatants were removed and neutralized with 0.3 volumes of 3M KOH/ 3M KHCO3. The neutralized liver extracts were then spun in an Eppendorf microfuge at 10,000 rpm (20 minutes, 4°C). The supernatants were analyzed for ara-ATP content by reverse phase HPLC (HP1050) using a Whatman Partisphere SA column (4.6 x 125 mm). A gradient from 0.3M ammonium phosphate buffer pH 3.5 to 0.8M ammonium phosphate pH 3.5 was run (1 ml/minute flow rate).
Renal excretion of araH following i.v. administration of 30.1 or ara-AMP was determined as described in Example Q.

[10] = Hepatic PMEA-diphosphate and plasma PMEA after intravenous dosing (Example P); type: in vivo, rat; settings: 10 mg/kg PMEA equivalents i.v.
[11] = Stability in plasma (Example C); type: in vitro ADME, rat; settings: 37°C, 5-8 hours, reverse phase HPLC
Method: Methods: Compounds were incubated in plasma at 37°C, and aliqouts removed at appropriate time points over the course of 5-8 hours. The aliquots were extracted with 1.5 volumes of methanol and clarified by centrifugation. Supernatants were then evaporated to dryness and the residues reconstituted with 100 µL of isotonic saline and then analyzed by reverse phase HPLC.

Rat liver microsomes = settings: linear over a 5 hour reaction period, equimolar products
Method: 1.1 was evaluated for microsome-catalyzed conversion to parent compound 2-{5-[9-(2-Phenylethyl)-8-adeninyl]} furanylphosphonic acid and phenol, an expected byproduct of the reaction.
Methods: Rat liver microsomes were prepared as described in Example I. Reaction conditions, sample processing, and HPLC analysis were as described in Example D. Phenol was identified by HPLC by its retention time and spectral characteristics relative to an authentic standard.

recombinant CYP3A4 = assay: Activation by recombinant CYP3A4 (Example G); type: in vitro ADME; settings: 28.4 at 100 µM, 37°C, NADPH dependent, linear for 30 minutes
Method: Activation of 30.1 and 28.4 was evaluated in reactions containing microsomes from baculovirus-infected insect cells co-expressing recombinant CYP3A4 and cytochrome p450 reductase (Panvera Corp., Madison, WI).
Methods: Reaction mixture composition was similar to that described in Example E. Reactions were terminated by addition of methanol to a final concentration of 60%, and products typically analyzed by HPLC with use of a YMC reverse phase C8 column (250 x 4.6 mm). […] The effluent was monitored at 254 nm.

## CC(C)Cn1c(-c2ccc(P3(=O)OCC(CO)CO3)o2)nc2ccc(Cl)cc21 (centres unmarked) [Compound 7.1, 6-Chloro-1-isobutyl-2-{5-[2'-(hydroxymethyl)-propan-1',3'-yl]phosphono-2-furanyl}benzimidazole]
[1]; Rattus norvegicus, Hepatocyte, read-out: % inhibition @ 100 µM, 100 µM
  inhibition at 100 µM: 65%
[1]; Rattus norvegicus, Hepatocyte
  IC50: 48 µM
Isolated rat hepatocytes [2]
  peak intrahepatocyte levels of 6-Chloro-1-isobutyl-2-(2-Phosphono-5-furanyl)benzimidazole: approximately 700 nmoles/g cells
[3]
  conversion to parent compound: converted to parent compound
[4]
  rate of formation of parent compound: 0.85 nmoles/mg microsomal protein/minute

## CC(C)(C)C(=O)OCOP(=O)(OCOC(=O)C(C)(C)C)C(CCCc1cccc(Oc2ccccc2)c1)S(=O)(=O)O (centres unmarked) [BMS 188494]
[5]
  oral bioavailability: < 2%

## Nc1ncnc2c1ncn2[C@@H]1O[C@H](COP(=O)(O)O)[C@@H](O)[C@@H]1O [araAMP, reference compound]
[6]
  drop of plasma ara-AMP levels: greater than 90%
[7]
  ara-AMP in plasma: not detected in plasma
Isolated rat hepatocytes [8]; Dose 100 µM, time point 2h
  Product concentration nmoles/g cells (ara-ATP): 212±0.6 nmoles/g cells
[9]; ara-AMP i.v. at equivalent doses
  persistence of ara-hypoxanthine in plasma: 8 h
[9]; i.v., 30.1 at 10 and 3 mg/kg, ara-AMP at equivalent doses
  ara-hypoxanthine (araH) in plasma: µmolar levels
[9]; judged by inability to detect the compound in plasma
  plasma half-life of free ara-AMP relative to 30.1: considerably shorter

## CC(C)(C)C(=O)OCOP(=O)(COCCn1cnc2c(N)ncnc21)OCOC(=O)C(C)(C)C [bisPOM-PMEA, reference compound]
[10]
  PMEA-diphosphate in liver: readily detectable levels

## CC(=O)OCC1COP(=O)(c2ccc(-c3nc4c(N)ncnc4n3CC(C)(C)C)o2)OC1 (centres unmarked) [Compound 7.5, 6-Amino-9-neopentyl-8-{5-[2'-(acetoxymethyl)-propan-1',3'-yl]phosphono-2-furanyl}purine]
[1]
  IC50: 13 µM

## Nc1ncnc2c1ncn2CCOCP(=O)(O)O [PMEA, 9-(2-phosphonylmethoxyethyl) adenine, reference compound]
Isolated rat hepatocytes [8]; Dose 250 µM
  Product concentration nmoles/g cells (PMEApp): 120 nmoles/g cells

## CC(C)(C)Cn1c(-c2ccc(P3(=O)OC4CC(O)CC(C4)O3)o2)nc2c(N)ncnc21 (centres unmarked) [Compound 1.2, 6-Amino-8-(5'-hydroxyl-1',3'-cyclohexyl)phosphonofuranyl-9-neopentyl purine]
[11]
  metabolism / degradation in fresh rat plasma: not degraded

## Nc1ncnc2c1nc(-c1ccc(P3(=O)OC4CC(O)CC(C4)O3)o1)n2CCc1ccccc1 (centres unmarked) [Compound 1.1, 6-Amino-8-(5'-hydroxyl-1',3'-cyclohexyl)phosphonofuranyl-9-phenethyl purine]
[1]
  IC50: 77 µM
[11]
  metabolism / degradation in fresh rat plasma: not degraded; also recorded: no evidence of metabolism
Rat liver microsomes
  rate of generation of 2-{5-[9-(2-Phenylethyl)-8-adeninyl]}furanylphosphonic acid and phenol: 15 pmoles /mg microsomal protein/minute

## Nc1ncnc2c1ncn2CCOCP1(=O)OCCC(c2ccncc2)O1 (centres unmarked) [Compound 28.4, 9-[2-(1-(4-Pyridyl)-1,3-propylphosphonomethoxy)ethyl]adenine]
[10]
  PMEA-diphosphate in liver: readily detectable levels
  Plasma PMEA levels relative to bisPOM-PMEA: greater than 10 fold lower
Isolated rat hepatocytes [8]; Dose 100 µM
  Product concentration nmoles/g cells (PMEApp): 169 nmoles/g cells
Recombinant CYP3A4
  rate of formation of PMEA: 3.1 ± 0.1 nmoles/ min/ nmole CYP3A4
